Data from the METLIN SMRT retention time set (Domingo-Almenara et al. 2019).

Assay: gradient 5% acetonitrile 3 min, to 50% in 2 min, to 85% in 15 min, held 3 min, 100 µL/min
Conditions: column: Zorbax Extend-C18 2.1 x 50 mm; eluents: water / acetonitrile, 0.1% formic acid
Outline: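 Retention times of pure standards were taken from adduct peaks that were selected by computer and manually inspected. Over 3 months, mixtures of ~100 molecules were run by HPLC–quadrupole time-of-flight mass spectrometry in positive and negative ionization mode. The Zorbax Extend-C18 column (2.1 × 50 mm, 1.8 μm) ran at 100 μL/min in water and acetonitrile, each containing 0.1% formic acid, with 40 μL dead volume and 900 μL dwell volume.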

SMILES | RP-LC retention time [s]
O=C(NCc1ccncc1)C1CCCN(c2nc3ccsc3c(=O)n2Cc2ccc(F)cc2)C1 (centres undefined) | 630
Cc1[nH]c(C(=O)N2CCC(CC(=O)NCCCN3CCCCC3)CC2)c(C)c1C | 606
CCc1cc(=O)n(CC(=O)Nc2ccc(F)cc2)c(N)n1 | 596
O=C(Cn1cc(-c2ccccc2)c2ncn(C3CC3)c(=O)c21)NCc1ccco1 | 799
Cc1cc(NCCCC(=O)NC2CCCCC2)n2nc(-c3cccnc3)nc2n1 | 646
O=C(Nc1cccc(Cl)c1)N1CCN(c2ncc(C(F)(F)F)cc2Cl)CC1 | 1190
COc1ccc(CC(=O)NC2CCN(c3cc(-c4ccc(Cl)cc4)[nH]n3)C2)cc1 (centres undefined) | 762
O=c1ccn(-c2ccc(F)cc2)nc1-c1nc(-c2ccccc2F)no1 | 838
CN(C)C(=O)C1c2ccccc2CC(=O)N1Cc1ccccc1 (centres undefined) | 728
O=C(c1ccc(C(F)(F)F)cc1)N1CCc2nc(-c3ccc(F)cc3)ncc2C1 | 1080
Cc1cc2nc(C(=O)N3CCN(c4ccccn4)CC3)c(=O)n(C)c2cc1C | 597
Cc1nn(CC(=O)NCCc2c[nH]c3ccc(Cl)cc23)c(=O)c2c(C)n(-c3ccccc3)nc12 | 908
CCOc1ccccc1NC(=O)N1CCc2nc(-c3ccccc3)ncc2C1 | 1010
COc1ccc(C(=O)N2CCC3(CC2)NC(=O)c2cc(C)ccc2N3C)cc1OC | 711
Nc1ccc(Cl)cc1C(=O)c1ccccc1Cl | 1140
COc1ccc(CCC(=O)N2CCN(c3nnc4ccc(C(F)(F)F)cn34)CC2)cc1 | 709
N#Cc1ccc(CN2CCC(F)(F)C(COCc3cccnc3)C2)cc1 (centres undefined) | 575
N#Cc1ccc(Cl)cc1NC(=O)C(=O)NCC(O)C1CCCCC1 (centres undefined) | 825
O=C(NCc1ccc(F)cc1Cl)C1=C2CCCN2c2ccc(F)cc2S1(=O)=O | 933
N#Cc1cccc(CN2CCCCC2c2nncn2CC2CC2)c1 (centres undefined) | 618
O=C(CCc1ccc2cc[nH]c2c1)NCc1cc(F)cc(F)c1 | 848
CCOc1ccccc1NC(=O)C1CCN(S(=O)(=O)c2cn(C(C)C)cn2)CC1 | 846
CCOc1ccc2nc(C(=O)NC3CC3)cn2n1 | 697

SMILES | RP-LC retention time [s]
CCOC(=O)C1=C(CN2CCCC2)NC(=O)NC1c1ccc(OC)cc1 (centres undefined) | 597
Cc1cccc2c1CCN(C(=O)c1ccco1)[C@@H]2C | 931
COc1ccc(-c2nc(N3CCN(c4ccccn4)CC3)c3ccccc3n2)cc1 | 580
O=C(CSc1ccc(N2CCCC(C(=O)NC3CC3)C2)nn1)Nc1ccc(Cl)cc1F (centres undefined) | 700
COc1ccc(NC(=O)C2CN(S(=O)(=O)c3cccnc3)CC23CCCCC3)cc1F (centres undefined) | 900
Cc1oc(C2CCN(S(=O)(=O)c3ccc(Cl)cc3)CC2)nc1C(=O)N1CCCC1 | 977
O=C1COc2ccc(S(=O)(=O)N3CCCC3C(=O)N3CCN(c4ccccc4F)CC3)cc2N1 (centres undefined) | 790
CC(C)NC(=O)C1CCN(c2nc3ccc(-c4cccc(F)c4)nc3s2)CC1 | 942
COc1ccc(OC)c(CC2C(=O)Nc3c(C)cccc32)c1 (centres undefined) | 882
Cc1ccccc1Oc1nccn2c(=O)n(CC(=O)Nc3ccccc3)nc12 | 856
Cc1ccc(-c2nc3cnccn3c2Nc2cccc(Cl)c2C)cc1 | 1080
CCN1CCN(C(=O)CC2COc3ccc(Cl)cc3N2Cc2ccccc2)CC1 (centres undefined) | 730
O=C(CN1CC=C(c2cnn(-c3ccccc3)c2)CC1)NCc1ccccn1 | 594
Cc1ccc(Nc2nc(-c3ccc(Br)cc3)cs2)nc1 | 1080
COc1ccc(N2CCN(c3cc(SCC(=O)Nc4cccc(Cl)c4F)ncn3)CC2)cc1 | 1190
Cc1nc(-c2ccc3c(c2)CCN3C(=O)COc2ccc(F)cc2)cs1 | 960
Cc1ccc(S(=O)(=O)N2CC(=O)N(C3CCCC3)C3(CCCCC3)C2)c(C)c1 | 1270
COCCCNC(=O)c1c(OCC(C)C)cc(=O)n2c1CCCCC2 | 638
CC1CCN(C(=O)C2=NN(CC(=O)OC(C)C)c3ccccc3S2(=O)=O)CC1 | 952
Cc1cccc(NC(=O)N2CCCC2c2c(C)noc2C)c1 (centres undefined) | 771
Cc1cc(-c2csc(S(=O)(=O)N3CCN(C(c4ccccc4)c4ccccc4)CC3)c2)on1 | 1200
CCOC(=O)c1[nH]c(C)c(CN(Cc2ccco2)C(=O)Nc2cccc(F)c2)c1C | 990
CC(C)Cc1csc(-c2csc(S(=O)(=O)NCc3cccs3)c2)n1 | 1150

SMILES | RP-LC retention time [s]
COCCn1c(SCc2ccccc2Cl)nc2cc(C(=O)NC(C)C)ccc2c1=O | 1010
O=C(CNC(=O)c1ccc(=O)[nH]c1)NCc1ccc(OCc2ccccc2)cc1 | 661
CCCN(CCC)C(=O)C(CCC(=O)O)NC(=O)c1ccccc1 (centres undefined) | 822
Cc1ccc(NC(=O)C2CCCN2S(=O)(=O)c2cc3c(cc2Cl)NC(=O)CO3)cc1F (centres undefined) | 844
CCCC(=O)NCCc1c2n(c3ccc(OC)cc13)CCCc1ccccc1-2 | 1150
Cc1cc2c(cc1S(=O)(=O)N1CCCC1C(=O)N1CCOCC1)OC(C)C(=O)N2 (centres undefined) | 638
COc1ccc2c(c1)CCc1c-2n[nH]c1C(=O)N1CCN(c2cc(=O)n(C)c(=O)n2C)CC1 | 659
CCCn1ccc2sc(C)c(C(=O)NC(C)c3ccc(F)cc3)c2c1=O (centres undefined) | 994
Cc1cc(C(=O)Nc2ccc(F)cc2F)nc2cc(-c3ccco3)nn12 | 1130
Cc1cc2nn(CC(=O)Nc3ccc(F)c(F)c3)c(=O)n2c(Nc2ccc(F)c(C)c2)n1 | 1090
COc1cc2c(cc1OC)C(C(=O)NCCCN1CCCC1)C(c1cccs1)N(C)C2=O (centres undefined) | 606
COC(=O)C1=CN(c2ccc(Cl)cc2)c2ccc(F)cc2S1(=O)=O | 894
CCOC(=O)c1sc(NC(=O)CN2CCN(c3ccccn3)CC2)nc1C | 605
COc1ccc(NC(=O)C(C)C2CCN(C(=O)Nc3ccccc3)CC2)cc1Cl (centres undefined) | 850
COc1ccc(OC)c(S(=O)(=O)NCC(c2cccs2)N2CCc3ccccc32)c1 (centres undefined) | 1010
COc1cc(OC)cc(C(=O)Nc2ccc3c(c2)Sc2ncccc2C(=O)N3C(C)C)c1 | 916
COc1ccc(NC(=O)C2CCCN(c3nnc4ccc(Cl)cn34)C2)cc1 (centres undefined) | 666
Cc1cnc(C2CC2)n1CCNS(=O)(=O)c1cccc(F)c1 | 605
CCOC(=O)C1=C(CN2CC(C)CC(C)C2)NC(=O)NC1c1ccc(Cl)cc1 (centres undefined) | 688
O=C(CCc1ccccc1)Nc1cnn(-c2ncncc2N2CCCC2)c1 | 702
O=C(NCc1cccc(F)c1)C1CCN(c2nnc3ccc(Cl)cn23)CC1 | 710
O=C(c1ccc(Br)cc1)N1CCc2nc(-c3ccccc3)ncc2C1 | 1000
O=C(CN1C(=O)COc2ccc(C(=O)N3CCCCC3)cc21)NC1CCCCCC1 | 782

SMILES | RP-LC retention time [s]
CCOC(=O)C1=C(C)NC2=C(C(=O)c3ccccc32)C1c1ccc(OCC)cc1 (centres undefined) | 718
COc1ccccc1C(=O)N1CCC2(CC1)OCCN2S(=O)(=O)c1ccc(F)c(C)c1 | 835
O=C(O)CCC1(c2ccccc2)NC(=O)NC1=O (centres undefined) | 651
Cc1nn(-c2ccc(C(=O)N3CCOCC3)cc2)c2c1C(=O)CC(C)(C)C2 | 689
O=[N+]([O-])c1c(NCCCO)cc(N2CCN(c3ccccn3)CC2)c2nonc12 | 584
CCc1ccc(-c2cc(C(=O)N3CCN(c4ncccn4)CC3)c3ccccc3n2)s1 | 1090
CSc1nnc(CCc2c(C)[nH]c(=O)[nH]c2=O)o1 | 549
O=C(O)C1CCN(S(=O)(=O)c2ccc(Cl)c(-c3nnc(-c4ccccc4)o3)c2)CC1 | 887
Cc1cc(N(C)C)nc(N2CCN(C(=O)c3ccc(Br)cc3)CC2)n1 | 658
Cc1csc(-c2cc(S(=O)(=O)NC3CCCCC3)cn2CC(=O)N2CCCCC2)n1 | 1010
O=C(NCC1CN(c2ccc3c(c2)OCO3)C(=O)O1)c1ccccc1C(F)(F)F (centres undefined) | 880
CCn1c(CCNC(=O)c2ccc(C)c(C)c2)nc2cccnc21 | 661
CNC(=O)c1cnn(-c2cccc(F)c2)c1-n1cccc1 | 777
CN(C)S(=O)(=O)c1ccc2c(c1)N(CC(=O)NCc1ccc(Cl)cc1)C(=O)C1CCCCN21 (centres undefined) | 932
CCn1cc(-c2ccc(Cl)cc2)cc1C(=O)NCCCN1CCOCC1 | 709
CCC(=O)N1CCc2cc(N3CC(C(=O)Nc4cccc(F)c4C)CC3=O)ccc21 (centres undefined) | 801
COc1ccc(CN(C)Cc2cc(=O)n3ccc(C)cc3n2)cc1OC | 587
CCC(=O)n1nc(-c2cccc(C)c2)nc1N | 890
COc1cccc(CNC(=O)N2CCc3nc[nH]c3C2)c1 | 625
Cc1cc(NC(=O)C2CCN(C(=O)c3cnn(-c4ccccc4)c3C)CC2)no1 | 657
